In patent US6875758B2, “Method of treating hyperlipidemic and hyperglycemic conditions in mammals using pregnadienols and pregnadienones” (Council of Scientific & Industrial Research, priority 1999, dated 2005):

What was measured:
[1] = system: cholesterol fed hyperlipidemic rats; experiment: Lipid peroxidation in cholesterol fed hyperlipidemic rats; format: in vivo
[2] = system: isoproterneol induced myocardial necrosis in rat; experiment: Isoproterneol induced myocardial necrosis in rats; format: in vivo; settings: isoproterneol 85 mg/kg + drug 25 mg/kg p.o.
Source text: The underlying cause of myocardial infarction is believed to be the progressive deposition of lipids and fibrotic material into the arterial wall. These pregnadienols and pregnadienous also provided cardiac protection as assessed in isoproterneol induced myocardial necrosis in rat model, which produces myocardial infarction due to an increased blood pressure and heart rate.

[3] = system: glucose loaded rats; experiment: Hypoglycemic activity in glucose loaded rats; format: in vivo, albino rats (Charles Foster strain); settings: for Blood Glucose Level: 100 mg/kg p.o. + glucose 2.0 g/kg; for % inhibition compared to control (blood glucose): 100 mg/kg
Protocol: The experiments were carried out with albino rats (Charles Foster strain) of either sex weighing 150-160 g. They were fed on laboratory diet prepared by M/s Lipton India Ltd. and maintained under 12 hr. light/dark cycle at 25±2° C.
The animals were divided into eight groups, each of six rats; group I was given 1% gum acacia (0.1 ml/100 g body weight) intragastrically (p.o.) and the group II were given 3β-hydroxypregna-5,16-dien-20-one (2) in 1% gum acacia. Animals of group III were given the standard antidiabetic drug, tolbutamide in the similar fashion. 2.0 g/kg glucose was given p.o. to all the rats along with the vehicle/Compound/Standard antidiabetic drug. Blood samples were taken from retroorbital plexus at periodic intervals. Glucose levels in the blood samples were measured by glucose oxidase method [Bergmeyer and Benut, 1963 cited in “Methods of Enzymatic Analysis” ed. H. Bergmeyer, Verlag Chemie, GmBH, Weinheim, Beroster, pp123, Academic press, New York].

[4] = system: Human serum LDL; experiment: Cu2+ induced oxidation of low density lipoprotein (TBA reactive lipid peroxides); format: biochemical; settings: for MDA (Exp.): 16 hr at 37° C., pH 7.4
Protocol: Human serum LDL was oxidized with Cu^′2 in different concentrations of test compound in 0.05 mole PBS, pH 7.4 for 16 hr at 37° C. Thiobarbituric acid reactive lipid peroxides are measured by standard procedure. […] Cu^′2 induced oxidation in LDL lipids are mainly due to the free OH radical during incubation.

[5] = system: streptozotocin induced diabetic rats; experiment: Hypoglycemic activity in streptozotocin induced hyperglycemic rats; format: in vivo; settings: 100 mg/kg p.o.
Protocol: Hyperglycemia in rats was produced by streptozotocin treatment. The animals showing blood glucose levels between 250-350 mg/dl were selected. Blood samples were collected after treatment at intervals and blood glucose levels were estimated immediately.

[6] = system: Rhesus monkeys; experiment: Hypolipidemic activity in Rhesus monkeys; format: in vivo; settings: for S. Triglycerides % Fall: day 60 vs day 0; for HDL-Cholesterol % Change / LDL-Cholesterol % Fall / S. Cholesterol % Fall: day 90 vs day 0
Protocol: In Rhesus monkeys: 3β-Hydroxypregna-5,16-dien-20one (2) was administered orally daily for 90 days in doses of 62.5, 125 or 650 mg/kg to different group of animals. Significant decrease in serum cholesterol was observed (45-52%).

[7] = system: endometrial proliferation; experiment: Clauberg assay, endometrial proliferation on McPhail scale; format: in vivo; settings: 200 mg/kg dose
Protocol: The progestational activity was also tested in vivo by Clauberg assay method. The degree of endometrial proliferation was estimated on the McPhail scale where 3′ or 4′ was considered as a full progestational effect.

[8] = system: normal rats; experiment: Hypolipidemic activity in normal rats; format: in vivo; settings: 50 mg/kg
Protocol: In normal rats, 3β-hydroxypregna-5,16-dien-20one (2), at 50 mg/kg produced a significant lowering of serum cholesterol and triglycerides as describe in Table-3 below.

[9] = 62.5, 125 or 650 mg/kg orally daily for 90 days

Structure (SMILES): CC(=O)C1=CC[C@H]2[C@@H]3CC=C4C[C@@H](O)CC[C@]4(C)[C@H]3CC[C@]12C [Compound 2, 3β-Hydroxypregna-5,16-dien-20-one]
- HDL lipid peroxides ([1]; cholesterol + drug 25 mg/kg): 125 ± 10 n mol MDA/dl
- HDL lipid peroxides % reversal as compared with cholesterol fed rats ([1]; cholesterol + drug 25 mg/kg): (−9) %
- LDL lipid peroxides ([1]; cholesterol + drug 25 mg/kg): 421 ± 20 n mol MDA/dl
- LDL lipid peroxides % reversal as compared with cholesterol fed rats ([1]; cholesterol + drug 25 mg/kg): (−30) %
- Liver lipid peroxides ([1]; cholesterol + drug 25 mg/kg): 212 ± 16 n mol MDA/g
- Liver lipid peroxides % reversal as compared with cholesterol fed rats ([1]; cholesterol + drug 25 mg/kg): (−23) %
- Serum lipid peroxides ([1]; cholesterol + drug 25 mg/kg): 931.5 ± 51 n mol MDA/dl
- Serum lipid peroxides % reversal as compared with cholesterol fed rats ([1]; cholesterol + drug 25 mg/kg): (−24) %
- VLDL lipid peroxides ([1]; cholesterol + drug 25 mg/kg): 310 ± 15 n mol MDA/dl
- VLDL lipid peroxides % reversal as compared with cholesterol fed rats ([1]; cholesterol + drug 25 mg/kg): (−18) %
- lipid peroxide levels in serum VLDL, LDL and liver (in words) ([1]; cholesterol fed animals, simultaneous treatment): significant reversal
- Heart Ca. - ATPase % Protection [2]: 30.2%
- Heart Glycogen % Protection [2]: 25.1%
- Heart Lipid peroxide % Protection [2]: 72.6%
- Heart Phospholipase % Protection [2]: 74.2%
- Serum Alkaline Phosphatase % Protection [2]: 24.0%
- Serum CPK % Protection [2]: 35.7%
- Serum GOT % Protection [2]: 27.0%
- Serum GPT % Protection [2]: 22.7%
- Maximum Blood Glucose Change ([3]; 100 mg/kg p.o. + glucose): −18.7%
- Blood Glucose Level ([3]; 0 min): 42.43 ± 1.64 mg/dL
- Blood Glucose Level ([3]; 30 min): 76.15 ± 6.07 mg/dL
- Blood Glucose Level ([3]; 60 min): 56.06 ± 4.65 mg/dL
- Blood Glucose Level ([3]; 90 min): 55.06 ± 2.61 mg/dL
- Blood Glucose Level ([3]; 120 min): 49.59 ± 1.66 mg/dL
- % inhibition compared to control (blood glucose) ([3]; 30 min): (48) %
- % inhibition compared to control (blood glucose) ([3]; 60 min): (55) %
- % inhibition compared to control (blood glucose) ([3]; 90 min): (54) %
- % inhibition compared to control (blood glucose) ([3]; 120 min): (34) %
- % inhibition of LDL oxidation ([4]; 2.5 μmol/ml): (26) %
- MDA (Exp.) ([4]; 2.5 μmol/ml): 41.4 ± 1.7 n mol MDA/mg protein
- % inhibition of LDL oxidation ([4]; 5.0 μmol/ml): (49) %
- MDA (Exp.) ([4]; 5.0 μmol/ml): 28.7 ± 4.0 n mol MDA/mg protein
- % inhibition of LDL oxidation ([4]; 10.0 μmol/ml): (74) %
- MDA (Exp.) ([4]; 10.0 μmol/ml): 10.6 ± 0.5 n mol MDA/mg protein
- % inhibition of LDL oxidation ([4]; 20 μmol/ml): (89) %
- MDA (Exp.) ([4]; 20 μmol/ml): 4.0 ± 0.5 n mol MDA/mg protein
- generation of LDL lipid peroxide (in words) ([4]; tested concentrations): inhibit the generation of LDL lipid peroxide in concentration dependent manner
- Blood Glucose Level ([5]; 0 hr): 274 ± 9 mg/dL
- % lowering from zero hour value (blood glucose) ([5]; 1 hr): (11.3) %
- % lowering from zero hour value (blood glucose) ([5]; 2 hr): (15.6) %
- % lowering from zero hour value (blood glucose) ([5]; 3 hr): (25.9) %
- % lowering from zero hour value (blood glucose) ([5]; 4 hr): (33.2) %
- % lowering from zero hour value (blood glucose) ([5]; 5 hr): (42.7) %
- % lowering from zero hour value (blood glucose) ([5]; 6 hr): (51.4) %
- % lowering from zero hour value (blood glucose) ([5]; 7 hr): (62.7) %
- % lowering from zero hour value (blood glucose) ([5]; 8 hr): (66.7) %
- % lowering from zero hour value (blood glucose) ([5]; 24 hr): (52.2) %
- S. Cholesterol ([6]; 62.5 mg/kg orally daily, day 0): 156.8 ± 23.0 mg/dL
- S. Triglycerides ([6]; 62.5 mg/kg orally daily, day 0): 77.5 ± 7.0 mg/dL
- S. Triglycerides ([6]; 62.5 mg/kg orally daily, day 60): 66.3 ± 6.9 mg/dL
- S. Cholesterol ([6]; 62.5 mg/kg orally daily, day 90): 83.3 ± 8.5 mg/dL
- HDL-Cholesterol ([6]; 62.5 mg/kg, day 0): 50.0 ± 4.5 mg/dL
- LDL-Cholesterol ([6]; 62.5 mg/kg, day 0): 91.8 ± 27.0 mg/dL
- S. Triglycerides % Fall ([6]; 62.5 mg/kg): 14%
- HDL-Cholesterol ([6]; 62.5 mg/kg, day 90): 45.0 ± 2.5 mg/dL
- LDL-Cholesterol ([6]; 62.5 mg/kg, day 90): 24.3 ± 8.0 mg/dL
- HDL-Cholesterol % Change ([6]; 62.5 mg/kg): −8%
- LDL-Cholesterol % Fall ([6]; 62.5 mg/kg): 75%
- S. Cholesterol % Fall ([6]; 62.5 mg/kg): 47%
- S. Cholesterol ([6]; 125 mg/kg orally daily, day 0): 133.3 ± 8.5 mg/dL
- S. Triglycerides ([6]; 125 mg/kg orally daily, day 0): 69.8 ± 9.9 mg/dL
- S. Triglycerides ([6]; 125 mg/kg orally daily, day 60): 60.0 ± 2.9 mg/dL
- S. Cholesterol ([6]; 125 mg/kg orally daily, day 90): 65.8 ± 2.2 mg/dL
- HDL-Cholesterol ([6]; 125 mg/kg, day 0): 46.3 ± 2.0 mg/dL
- LDL-Cholesterol ([6]; 125 mg/kg, day 0): 63.5 ± 7.4 mg/dL
- S. Triglycerides % Fall ([6]; 125 mg/kg): 13%
- HDL-Cholesterol ([6]; 125 mg/kg, day 90): 50.8 ± 0.5 mg/dL
- LDL-Cholesterol ([6]; 125 mg/kg, day 90): 4.6 ± 0.9 mg/dL
- HDL-Cholesterol % Change ([6]; 125 mg/kg): +10%
- LDL-Cholesterol % Fall ([6]; 125 mg/kg): 90%
- S. Cholesterol % Fall ([6]; 125 mg/kg): 50%
- S. Cholesterol ([6]; 650 mg/kg orally daily, day 0): 132.8 ± 6.4 mg/dL
- S. Triglycerides ([6]; 650 mg/kg orally daily, day 0): 90.5 ± 3.9 mg/dL
- S. Triglycerides ([6]; 650 mg/kg orally daily, day 60): 58.5 ± 3.8 mg/dL
- S. Cholesterol ([6]; 650 mg/kg orally daily, day 90): 63.3 ± 2.3 mg/dL
- HDL-Cholesterol ([6]; 650 mg/kg, day 0): 39.3 ± 1.3 mg/dL
- LDL-Cholesterol ([6]; 650 mg/kg, day 0): 72.7 ± 8.4 mg/dL
- S. Triglycerides % Fall ([6]; 650 mg/kg): 36%
- HDL-Cholesterol ([6]; 650 mg/kg, day 90): 41.8 ± 0.9 mg/dL
- LDL-Cholesterol ([6]; 650 mg/kg, day 90): 13.1 ± 0.7 mg/dL
- HDL-Cholesterol % Change ([6]; 650 mg/kg): +6%
- LDL-Cholesterol % Fall ([6]; 650 mg/kg): 82%
- S. Cholesterol % Fall ([6]; 650 mg/kg): 53%
- changes in HDL-cholesterol [6, 9]: not significant
- decrease in low density lipoprotein [6, 9]: 75-90%
- decrease in serum cholesterol [6, 9]: 45-52%
- progestational activity [7]: did not exhibit any activity
- Serum Cholesterol ([8]; 0 Days): 71.5 ± 1.8 mg %
- Serum Cholesterol ([8]; 30 Days): 43.2 ± 2.9 mg %
- Serum Cholesterol % Fall ([8]; 30 Days): 40%
- Serum Triglycerides ([8]; 30 Days): 42.0 ± 2.8 mg %
- Serum Triglycerides % Fall compared to control ([8]; 30 Days): 35%
